Assay results reported in patent publication US20260273072A1, “NOVEL PLK1 DEGRADATION INDUCING COMPOUND” (UPPTHERA, INC., priority 2023, published 2026).

Tests used:
Assay type in all cases: cell-based
[1] = target: T1, PLK1 (Homo sapiens, UniProt P53350); experiment: Luciferase assay for PLK1 in HeLa LgBit (Plk1-HiBit KI) cell line; settings: 300 nM compound, luminescence after 9 hours
T1 construct: endogenous in cells; host or cells: HeLa LgBit (Plk1-HiBit KI): HeLa stably expressing LgBit, with a CRISPR/Cas9 knock-in of HiBit at the endogenous PLK1 locus
T1 sequence (P53350 whole entry): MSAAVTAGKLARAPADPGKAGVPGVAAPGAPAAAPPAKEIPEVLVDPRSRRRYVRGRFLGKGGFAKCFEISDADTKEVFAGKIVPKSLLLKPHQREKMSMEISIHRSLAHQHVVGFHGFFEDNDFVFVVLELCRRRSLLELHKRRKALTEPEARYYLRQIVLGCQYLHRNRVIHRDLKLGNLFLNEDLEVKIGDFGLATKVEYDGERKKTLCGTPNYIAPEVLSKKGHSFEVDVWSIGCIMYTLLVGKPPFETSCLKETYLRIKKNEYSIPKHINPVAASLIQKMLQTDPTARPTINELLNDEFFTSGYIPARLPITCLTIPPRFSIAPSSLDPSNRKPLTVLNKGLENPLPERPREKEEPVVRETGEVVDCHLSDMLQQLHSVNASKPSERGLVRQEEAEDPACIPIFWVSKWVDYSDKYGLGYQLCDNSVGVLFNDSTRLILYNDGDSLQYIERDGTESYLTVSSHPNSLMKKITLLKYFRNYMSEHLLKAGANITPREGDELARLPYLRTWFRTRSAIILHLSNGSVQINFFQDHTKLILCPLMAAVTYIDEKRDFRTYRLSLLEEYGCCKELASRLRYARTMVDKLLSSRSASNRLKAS
How it was run: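 HeLa LgBit cells with endogenous PLK1 C-terminally HiBit-tagged by CRISPR knock-in; released from 24 h 2 mM thymidine block, seeded, grown 18 h. Compounds at 300 nM with Endurazine substrate; luminescence (470-480 nm) tracked in real time, expressed as ratio to DMSO.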

[2] = tested on: NCI-H526 cell line; experiment: Cell viability assay for NCI-H526 cell line (EZ-Cytox); settings: Homo sapiens, NCI-H526, 120 h; H526 cells, 5 days, 3000 nM to 0.46 nM
How it was run: (§1)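 Human SCLC lines cultured with compound for 5 days in a CO2 incubator; viability read by EZ-Cytox absorbance at 450 nm after 3 min shaking. IC50 reported in activity bins (A: <30 nM up to E: <400 nM).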

[3] = tested on: NCI-H69 cell line; experiment: Cell viability assay for NCI-H69 cell line (EZ-Cytox); settings: Homo sapiens, NCI-H69, 120 h; H69 cells, 5 days, 3000 nM to 0.46 nM
How it was run: as §1

[4] = tested on: MRC-5 cell line; experiment: Cell viability assay for MRC-5 cell line (EZ-Cytox); settings: Homo sapiens, MRC5, 120 h; MRC-5 normal cell line, 5 days, 10000 nM to 1.52 nM; read-out: Activity: IC50 value, cell viability, MRC-5 cell line (Exemplary Compounds)
Description: 4. Cell Viability Assay for MRC-5 Cell Line
(1) Culture of MRC-5 Cell Line
The MRC-5 cell line was purchased from KCLB. Passage of cultured cells was maintained within P15.
(2) Treatment of Compounds of the Present Invention
Then, it was cultured in 37° C. CO2 incubator (Thermo Fisher Scientific) for 5 days.
(3) Cytotoxicity Experiment
CO2 incubator for 4 hours.

SMILES	Activity: ratio of the luminescence value of compound treatment group to DMSO treatment group [1]	IC50 [2]	IC50 [3]	IC50 [4]
COc1cc(C(=O)NN2CCC(CCN3CCN(c4cc(F)c(NC5CCC(=O)NC5=O)cc4F)CC3)CC2)ccc1Nc1ncc2c(n1)N(C1CCCC1)CC(F)(F)C(=O)N2C (stereo not shown) [Compound 57, 4-((9-cyclopentyl-7,7-difluoro-5-methyl-6-oxo-6,7,8,9-tetrahydro-5H-pyrimido[4,5-b][1,4]diazepin-2-yl)amino)-N-(4-(2-(4-(4-((2,6-dioxopiperidin-3-yl)amino)-2,5-difluorophenyl)piperazin-1-yl)ethyl)piperidin-1-yl)-3-methoxybenzamide]	+++ (+++: <0.3)	< 30 nM	< 30 nM	> 10000 nM
CCN1CC(F)(F)C(=O)N(C)c2cnc(Nc3ccc(C(=O)NN4CCC(CCN5CCN(c6cc(OC)c(NC7CCC(=O)NC7=O)cc6F)CC5)CC4)cc3OC)nc21 (stereo not shown) [Compound 41, N(4-(2-(4-(4-((2,6-dioxopiperidin-3-yl)amino)-2-fluoro-5-methoxyphenyl)piperazin-1-yl)ethyl)piperidin-1-yl)-4-((9-ethyl-7,7-difluoro-5-methyl-6-oxo-6,7,8,9-tetrahydro-5H-pyrimido[4,5-b][1,4]diazepin-2-yl)amino)-3-methoxybenzamide]	++ (++: <0.5)	< 30 nM	< 30 nM	> 10000 nM
COc1cc(N2CCN(CCC3CCN(NC(=O)c4ccc(Nc5ncc6c(n5)N(C5CCCC5)CC(F)(F)C(=O)N6C)c(OC)c4F)CC3)CC2)c(F)cc1NC1CCC(=O)NC1=O (stereo not shown) [Compound 44, 4-((9-cyclopentyl-7,7-difluoro-5-methyl-6-oxo-6,7,8,9-tetrahydro-5H-pyrimido[4,5-b][1,4]diazepin-2-yl)amino)-N-(4-(2-(4-(4-((2,6-dioxopiperidin-3-yl)amino)-2-fluoro-5-methoxyphenyl)piperazin-1-yl)ethyl)piperidin-1-yl)-2-fluoro-3-methoxybenz amide]	+++ (+++: <0.3)	< 50 nM	< 100 nM	> 10000 nM
COc1cc(C(=O)NC2CCN(CCN3CCN(c4cc(OC)c(NC5CCC(=O)NC5=O)cc4F)CC3)CC2)ccc1Nc1ncc2c(n1)N(C1CCCC1)CC(F)(F)C(=O)N2C (stereo not shown) [Compound 48, 4-((9-cyclopentyl-7,7-difluoro-5-methyl-6-oxo-6,7,8,9-tetrahydro-5H-pyrimido[4,5-b][1,4]diazepin-2-yl)amino)-N-(1-(2-(4-(4-((2,6-dioxopiperidin-3-yl)amino)-2-fluoro-5-methoxyphenyl)piperazin-1-yl)ethyl)piperidin-4-yl)-3-methoxybenzamide]	++ (++: <0.5)	< 30 nM	< 50 nM	> 10000 nM
COc1cc(C(=O)NN2CCC(CCN3CCN(c4ccc(NC5CCC(=O)NC5=O)nc4)CC3)CC2)ccc1Nc1ncc2c(n1)N(C1CCCC1)CC(F)(F)C(=O)N2C (stereo not shown) [Compound 77, 4-((9-cyclopentyl-7,7-difluoro-5-methyl-6-oxo-6,7,8,9-tetrahydro-5H-pyrimido[4,5-b][1,4]diazepin-2-yl)amino)-N-(4-(2-(4-(6-((2,6-dioxopiperidin-3-yl)amino)pyridin-3-yl)piperazin-1-yl)ethyl)piperidin-1-yl)-3-methoxybenzamide]	++ (++: <0.5)	< 30 nM	< 30 nM	> 10000 nM
COc1cc(C(=O)NN2CCC(CCN3CCN(c4cc(F)c(NC5CCC(=O)NC5=O)cc4F)CC3)CC2)ccc1Nc1ncc2c(n1)N(C(C)C)CC(F)(F)C(=O)N2C (stereo not shown) [Compound 58, 4-((7,7-difluoro-9-isopropyl-5-methyl-6-oxo-6,7,8,9-tetrahydro-5H-pyrimido[4,5-b][1,4]diazepin-2-yl)amino)-N-(4-(2-(4-(4-((2,6-dioxopiperidin-3-yl)amino)-2,5-difluorophenyl)piperazin-1-yl)ethyl)piperidin-1-yl)-3-methoxybenzamide]	+++ (+++: <0.3)	< 30 nM	< 30 nM	> 10000 nM
COc1cc(C(=O)NN2CCC(CCN3CCN(c4cc(OC)c(NC5CCC(=O)NC5=O)cc4F)CC3)CC2)c(F)cc1Nc1ncc2c(n1)N(C(C)C)CC(F)(F)C(=O)N2C (stereo not shown) [Compound 43, 4-((7,7-difluoro-9-isopropyl-5-methyl-6-oxo-6,7,8,9-tetrahydro-5H-pyrimido[4,5-b][1,4]diazepin-2-yl)amino)-N-(4-(2-(4-(4-((2,6-dioxopiperidin-3-yl)amino)-2-fluoro-5-methoxyphenyl)piperazin-1-yl)ethyl)piperidin-1-yl)-2-fluoro-5-methoxybenzamide]	++ (++: <0.5)	< 30 nM	< 30 nM	> 10000 nM
COc1cc(C(=O)NN2CCC(CCN3CCN(c4cc(OC)c(NC5CCC(=O)NC5=O)cc4F)CC3)CC2)c(F)cc1Nc1ncc2c(n1)N(C1CCCC1)CC(F)(F)C(=O)N2C (stereo not shown) [Compound 42, 4-((9-cyclopentyl-7,7-difluoro-5-methyl-6-oxo-6,7,8,9-tetrahydro-5H-pyrimido[4,5-b][1,4]diazepin-2-yl)amino)-N-(4-(2-(4-(4-((2,6-dioxopiperidin-3-yl)amino)-2-fluoro-5-methoxyphenyl)piperazin-1-yl)ethyl)piperidin-1-yl)-2-fluoro-5-methoxybenz amide]	++ (++: <0.5)	< 30 nM	< 50 nM	> 10000 nM

The next lines start with results.

Activity: ratio of the luminescence value of compound treatment group to DMSO treatment group [1]	SMILES	IC50 [2]	IC50 [3]	IC50 [4]
+++ (+++: <0.3)	COc1cc(C(=O)NC2CCC(N(C)CC3CCN(c4ccc(C5CCC(=O)NC5=O)nc4)CC3)CC2)ccc1Nc1ncc2c(n1)N(C1CCCC1)CC(F)(F)C(=O)N2C (stereo not shown) [Compound 10, 4-((9-cyclopentyl-7,7-difluoro-5-methyl-6-oxo-6,7,8,9-tetrahydro-5H-pyrimido[4,5-b][1,4]diazepin-2-yl)amino)-N-((1r,4r)-4-(((1-(6-(2,6-dioxopiperidin-3-yl)pyridin-3-yl)piperidin-4-yl)methyl)(methyl)amino)cyclohexyl)-3-methoxybenzamide]	< 30 nM	< 30 nM	> 10000 nM
++ (++: <0.5)	CCN1CC(F)(F)C(=O)N(C)c2cnc(Nc3ccc(C(=O)NC4CCN(CCC5CCN(c6cc(F)c(NC7CCC(=O)NC7=O)cc6F)CC5)CC4)cc3OC)nc21 (stereo not shown) [Compound 64, N(1-(2-(1-(4-((2,6-dioxopiperidin-3-yl)amino)-2,5-difluorophenyl)piperidin-4-yl)ethyl)piperidin-4-yl)-4-((9-ethyl-7,7-difluoro-5-methyl-6-oxo-6,7,8,9-tetrahydro-5H-pyrimido[4,5-b][1,4]diazepin-2-yl)amino)-3-methoxybenzamide]	< 30 nM	< 30 nM	> 10000 nM
+++ (+++: <0.3)	CCN1CC(F)(F)C(=O)N(C)c2cnc(Nc3ccc(C(=O)NC4CCC(N(C)CC5CCN(c6ccc(NC7CCC(=O)NC7=O)cc6F)CC5)CC4)cc3OC)nc21 (stereo not shown) [Compound 27, N((1r,4r)-4-(((1-(4-((2,6-dioxopiperidin-3-yl)amino)-2-fluorophenyl)piperidin-4-yl)methyl)(methyl)amino)cyclohexyl)-4-((9-ethyl-7,7-difluoro-5-methyl-6-oxo-6,7,8,9-tetrahydro-5H-pyrimido[4,5-b][1,4]diazepin-2-yl)amino)-3-methoxybenzamide]	< 30 nM	< 30 nM	> 10000 nM
++ (++: <0.5)	COc1cc(C(=O)NC2CCC(N(C)CC3CCN(c4ccc(C5CCC(=O)NC5=O)nc4)CC3)CC2)ccc1Nc1ncc2c(n1)N(C(C)C)CC(F)(F)C(=O)N2C (stereo not shown) [Compound 11, 4-((7,7-difluoro-9-isopropyl-5-methyl-6-oxo-6,7,8,9-tetrahydro-5H-pyrimido[4,5-b][1,4]diazepin-2-yl)amino)-N-((1r,4r)-4-(((1-(6-(2,6-dioxopiperidin-3-yl)pyridin-3-yl)piperidin-4-yl)methyl)(methyl)amino)cyclohexyl)-3-methoxybenzamide]	< 30 nM	< 30 nM	> 10000 nM
+++ (+++: <0.3)	COc1cc(C(=O)NC2CCC(N(C)CC3CCN(c4cnc(C5CCC(=O)NC5=O)cc4F)CC3)CC2)ccc1Nc1ncc2c(n1)N(C1CCCC1)CC(F)(F)C(=O)N2C (stereo not shown) [Compound 20, 4-((9-cyclopentyl-7,7-difluoro-5-methyl-6-oxo-6,7,8,9-tetrahydro-5H-pyrimido[4,5-b][1,4]diazepin-2-yl)amino)-N-((1r,4r)-4-(((1-(6-(2,6-dioxopiperidin-3-yl)-4-fluoropyridin-3-yl)piperidin-4-yl)methyl)(methyl)amino)cyclohexyl)-3-methoxybenzamide]	< 30 nM	< 30 nM	> 10000 nM
